Assay results published in patent publication US8772022B2, “Hepatitis C virus expressing reporter tagged NS5A protein” (Hvidovre Hospital, priority 2008, dated 2014).

Test system: Huh7.5 cells
Experiment: Supernatant infectivity titer, focus forming unit (FFU) method on Huh7.5 cells
Format: cell-based, human
Protocol: To determine the efficiency of the developed system, HCV RNA titers are determined in IU/ml (international units/ml) with Taq-Man Real-Time-PCR and infectious titers are determined with a focus-forming units (FFU) method: in this method, infectivity titers are determined by infection of cell culture replicates with serial dilutions of virus containing supernatants and, following immuno-stainings for HCV antigens, counting of HCV-antigen positive cell foci. Alternatively the infectious titers are determined as 50% tissue culture infectious dose.
Viral spread was monitored by HCV Core and NS5A immunostainings with mouse anti-HCV core protein monoclonal antibody (B2) (Anogen, Yes Biotech Laboratories) or anti-NS5A, 9E10, respectively, as described in the following section. For reporter viruses tagged with fluorescent reporter gene, viral spread was also monitored by direct visualization of the reporter gene by fluorescence microscopy. For reporter viruses tagged with hRLuc reporter gene, viral spread was also monitored by luminescence-based assay as described below. Supernatant infectivity titers were determined as 50% tissue culture infectious dose (TCID50)/mL or as focus forming units (FFU)/mL, as described in the following section. Supernatant HCV RNA titers were measured by a 5′ UTR based Real Time RT-PCR as described below.
Viral infectivity titers were determined by the tissue culture infectious dose 50 (TCID50) or focus forming unit method. 6×10^3/well naive Huh7.5 cells were plated out in a poly-D-lysine coated 96-well plate (Nunc) the day before infection. Cells were then incubated with 10-fold dilutions of cell culture supernatants. For TCID50 determinations, 6 replicates per dilution were incubated for 2-3 days. For FFU determinations, wells were incubated for 48 rs. After incubation, cells were permeabilized for 5′ with cold methanol. After washing 1× with PBS and 1× with PBS/Tween-20, blocking was carried out for 20′ with sterile filtered 1% BSA/0.2% skim milk in PBS followed by a 5′ blocking of endogenous peroxidase activity using 3% H2O2. Cells were washed as above and incubated with a 1:200 dilution of 1° Ab α-NS5A (9E10) in PBS/0.1% tween-20 over night at 4° C. After washing, a 1:300 dilution of 2° Ab HRP-goat anti-mouse IgG (H+L) (Amersham Biosciences) in PBS/0.1% tween-20 was added and incubated for 30′ at room temperature. Staining was developed using DAB substrate kit (DAKO) for 30′ after washing. In TCID50 determinations, wells were scored positive if one or more cells were infected, and the TCID50 was calculated according to the Reed and Muench method. TCID50 values are derived from single or multiple determinations as indicated. FFU determinations are based on counts of wells with 5-100 FFU and three independent virus dilutions with one replicate each. Counts were obtained by counting FFU by eye or by using automated counting on an ImmunoSpot Series 5 UV Analyzer (CTL Europe GmbH) with customized software kindly provided by CTL. From FFU counts in experimental wells, the mean of spot counts of at least 6 negative control wells was subtracted (˜usually 3 to 15 spots).

[1] = day 5 post transfection, Huh7.5
[2] = day 8 post transfection, Huh7.5

| Substance | Infectivity titer of transfection supernatant Log10 (FFU/mL) [1] | Infectivity titer of transfection supernatant Log10 (FFU/mL) [2] | Infectivity titer of transfection supernatant Log10 (FFU/mL) (day 5 post transfection, * another, independent transfection experiment) | Infectivity titer of transfection supernatant Log10 (FFU/mL) (day 7 post transfection, * another, independent transfection experiment) |
| --- | --- | --- | --- | --- |
| H77^5′UTR/HK6a^C-NS2/JFH1T1390C, A1591C: 6a Core-NS2 recombinant with heterotypic 1a (H77) 5′UTR | 3.60 Log10 (FFU/mL) | 3.23 Log10 (FFU/mL) |  |  |
| H77^5′UTR/J4^C-NS2/JFH1T2997C, A4828T: 1b Core-NS2 recombinant with heterotypic 1a (H77) 5′UTR | 3.32 Log10 (FFU/mL) | 2.49 Log10 (FFU/mL) |  |  |
| H77^5′UTR/J8^C-NS2/JFH1: 2b Core-NS2 recombinant with heterotypic 1a (H77) 5′UTR | 3.41 Log10 (FFU/mL) | 2.58 Log10 (FFU/mL) |  |  |
| H77^5′UTR/S52^C-NS2/JFH1T2719G, A4551C: 3a Core-NS2 recombinant with heterotypic 1a (H77) 5′UTR | 4.07 Log10 (FFU/mL) | 4.22 Log10 (FFU/mL) |  |  |
| HK6a^5′UTR-NS2/JFH1T1391C, A1592C: 6a Core-NS2 recombinant with homotypic 6a (HK6a) 5′UTR |  |  | 4.57 Log10 (FFU/mL) | 4.39 Log10 (FFU/mL) |
| J4^5′UTR-NS2/JFH1T2997C, A4828T: 1b Core-NS2 recombinant with homotypic 1b (J4) 5′UTR | 2.47 Log10 (FFU/mL) | 2.07 Log10 (FFU/mL) |  |  |
| J8^5′UTR-NS2/JFH1: 2b Core-NS2 recombinant with homotypic 2b (J8) 5′UTR | 3.94 Log10 (FFU/mL) | 3.75 Log10 (FFU/mL) |  |  |
| S52^5′UTR-NS2/JFH1T2717G, A4549C: 3a Core-NS2 recombinant with homotypic 3a (S52) 5′UTR | 4.57 Log10 (FFU/mL) | 4.53 Log10 (FFU/mL) |  |  |
| S52^5′UTR/HK6a^C-NS2/JFH1T1388C, A1589C: 6a Core-NS2 recombinant with heterotypic 3a (S52) 5′UTR | 3.29 Log10 (FFU/mL) | 3.15 Log10 (FFU/mL) |  |  |
| S52^5′UTR/J4^C-NS2/JFH1T2995C, A4826T: 1b Core-NS2 recombinant with heterotypic 3a (S52) 5′UTR | 2.03 Log10 (FFU/mL) | 1.67 Log10 (FFU/mL) |  |  |
| S52^5′UTR/J8^C-NS2/JFH1: 2b Core-NS2 recombinant with heterotypic 3a (S52) 5′UTR | 3.08 Log10 (FFU/mL) | 2.10 Log10 (FFU/mL) |  |  |
